Melting point data for 62 molecules are collected here from a melting point compilation (Tetko et al.; mined from patent text by program, amines drawn as free bases though some values may be those of a salt).

Bounds are passed on as bounds.

What is called melting point is the temperature of the solid-liquid transition. For the molecule `CCOC(=O)C1=CC(C(=O)c2cc(Br)ccc2O)=CN2CCc3c([nH]c4ccccc34)C12C(=O)OCC` (configuration not stated), the melting point was 215 °C.

`CC(c1ccc(-c2ccccc2)c(F)c1)c1nc(CN2CCOCC2)no1` (configuration not stated) showed a melting point of 91.5 to 92.5 °C.

`O=C(Br)c1ccc(F)c(Br)c1` gave a melting point of 34.8 to 35.8 °C.

In turn, `COc1cc(OC(=O)c2ccccc2)c2ccccc2c1OC(=O)c1ccccc1` showed a melting point of 63 to 64 °C.

The molecule `CCCCc1oc2ccccc2c1C(=O)Nc1ccc2c(Br)c(OCC#N)ccc2c1` had a melting point of 155 to 159 °C.

Take `CC(C)n1cc(-c2cnc3c(c2)nnn3Cc2ccc3ncccc3c2)cn1`: the melting point lay in the range of 126 to 128 °C.

`O=C(O)c1cc(Br)c(Cl)s1`: the melting point is > 200 °C.

On to `CC(C)(CO)Nc1nc(-c2ccc(Br)cc2)cs1`, for which the melting point is 151 to 153 °C.

In turn, `CCCCc1oc2ccccc2c1C(=O)Nc1ccc(-c2ccc(OCC(=O)O)cc2)cc1` yielded a melting point of 225 to 227 °C.

`CC(C)NC1CCCCC1O` (configuration not stated) returned a melting point of 54 to 55 °C.

In turn, `O=C(O)CC1(CC(O)=NO)CCCC1` yielded a melting point of 70 to 74 °C.

As for `CCOC(=O)c1cn(-c2cccnc2)cn1`, the melting point was in the range of 102 to 103 °C.

As to `COc1nc(C)cnc1NS(=O)(=O)c1ccccc1-c1ccc(C)cc1`, the melting point fell in the range of 184 to 185 °C.

`COc1ccc(C2CN(Cc3ccccc3)Cc3c2ccc(OC)c3Cl)cc1OC` (configuration not stated) registered a melting point of 88 to 91 °C.

Consider `Nc1cc(N2CC(CCc3ccccc3)OC2=O)ccn1` (configuration not stated), for which the melting point was 143 to 144 °C.

Molecule `CC1(C)CN(Cc2ccccc2[N+](=O)[O-])C(=O)S1` gave a melting point of 128 to 129 °C.

`CN(CCOc1ccc(NS(C)(=O)=O)cc1)CCc1ccc(NS(C)(=O)=O)cc1` yielded a melting point of 150 to 152 °C.

Turning to `COc1cc(NC(=O)CCN2CCCN(CCC(=O)Nc3cc(OC)c(OC)c(OC)c3)CC2)cc(OC)c1OC`, the melting point is 135 to 137 °C.

`C[C@@H]1CNc2c(cccc2[N+](=O)[O-])[C@H](C)N1` (relative stereo) showed a melting point of 62 °C.

Consider `CC(C)(C)c1ccc(N2CCOCC2)c(NP(=O)(O)O)c1`, for which the melting point is 79 to 83 °C.

In the case of `CS(=O)(=O)c1ccc(-c2sc(Br)cc2-c2ccc(F)cc2)cc1`, the melting point was in the range of 141 to 145 °C.

As to `COc1c(C(C)(C)C)cc(C=C2CCON(C)C2=O)cc1C(C)(C)C`, the melting point was 119 to 121 °C.

As to `O=C(O)c1c(F)ccc([N+](=O)[O-])c1C(F)(F)F`, the melting point stood at 190 °C.

In the case of `CC(=O)Nc1ccccc1NS(=O)(=O)c1cc(C(=O)O)cc(NCc2ccccc2)c1Oc1ccccc1`, the melting point is 197 to 200 °C.

`O=C(Nc1cccc2[nH]ccc12)c1ccccc1OCCCCBr` had a melting point of 135 °C.

Turning to `O=C1N(Cc2ccc(Cl)cc2)c2ccccc2C1(O)c1cc(OCc2ccccc2)ccc1O` (configuration not stated), the melting point lay in the range of 172 to 175 °C.

Molecule `Cc1ccc2c(Br)csc2c1` yielded a melting point of 51 to 53 °C.

On to `O=C(NCCSCc1cccc(Cl)c1)c1c(F)cccc1F`, for which the melting point was in the range of 41 to 43 °C.

`FC(F)(F)Oc1ccc(Cn2cnc3c(-c4ccco4)ncnc32)cc1` showed a melting point of 146 to 147 °C.

The molecule `Nc1nc(Cl)c2ncn([C@@H]3C[C@H](O)[C@@](O)(CO)C3)c2n1` came in with a melting point of 217 to 219 °C.

The molecule `CCCCCCCCNC(=O)N1CCC(c2cc(Cc3ccc(OC)cc3)nc(N)n2)CC1` yielded a melting point of 104 to 106 °C.

As for `COc1cc(Nc2nccc(-c3ccc(N4CCN(CCCN5C(=O)c6ccccc6C5=O)CC4)nc3)n2)cc(OC)c1OC`, the melting point lay within 105 to 106 °C.

`Cc1cc(-c2ccc(C(F)(F)F)cc2)nc(-c2cccc(-c3cccc(S(N)(=O)=O)c3)c2)n1` registered a melting point of 224 °C.

As for `CCCCCCCCCCNC(=O)c1ccc(C(=O)NCCCCCCCCCC)c(N(CC(=O)OC)CC(=O)OC)c1`, the melting point was 76 to 78 °C.

Molecule `CN1c2ccccc2-c2nccn2-c2ccccc21` gave a melting point of 194 to 197 °C.

The molecule `CCN1C(=O)Cc2cc(OC(=O)CCl)ccc21` displayed a melting point of 53 to 57 °C.

Molecule `CCN(CC)C(=O)C(C)n1cc(C)c(-c2ccccc2)n1` (configuration not stated) registered a melting point of 55 to 57 °C.

In turn, `Cn1c(C2CCN(C(=O)OC(C)(C)C)CC2)nc2cc(-c3ccc(S(C)(=O)=O)cc3F)ccc21` yielded a melting point of 85 to 88 °C.

`CC(C)OC(=O)C1C2CCC(C2)C1n1cc(F)c(=O)[nH]c1=O` (configuration not stated) gave a melting point of 135 to 136 °C.

Take `CCCCn1c(=O)c2cc(C(=O)O)cn2c2cc(Cl)c(Cl)cc21`: the melting point was 281 to 283 °C.

In turn, `COc1cc(O)c(C(=O)c2ccccc2F)c(Cl)c1` showed a melting point of 85 to 90 °C.

Molecule `COc1ccc(C(=O)c2c(-c3ccc(OC)cc3)sc3ccccc23)cc1` returned a melting point of 124 to 126 °C.

Molecule `O=C(N[C@H]1CSc2ccc(C(F)(F)F)cc2NC1=O)OCc1ccccc1` came in with a melting point of 120 to 123 °C.

Turning to `Cc1cnc2[nH]cc(/C=C3\N=C(N4CCCCCC4)NC3=O)c2c1`, the melting point is 324 to 326 °C.

Turning to `CCOC(=O)c1c(C)nc(-c2ccccc2)nc1-c1ccncc1`, the melting point fell in the range of 95 to 96 °C.

Regarding `O=C(O)CN1C(=O)c2cccc3c(C(=O)c4ccccc4)ccc(c23)C1=O`, the melting point was in the range of 310 to 312 °C.

With `CCCCCCC1CC(c2ccc(CCCC)cc2)C(=O)O1` (configuration not stated), the melting point was 37.7 °C.

As for `CCCCCCCCCCCCSc1ccc2nn(-c3cc(C(C)(C)C)cc(C(C)(C)C)c3O)nc2c1`, the melting point was in the range of 62 to 64 °C.

Take `COc1ccc(-c2nnc(N3CCN(C)CC3)nc2-c2ccc(OC)cc2)cc1`: the melting point was 158 to 160 °C.

In turn, `COc1cccc(Cl)c1C1SC(=O)NC1=O` (configuration not stated) had a melting point of 195 to 197 °C.

In the case of `NC1=NC(c2cccc(-c3cccnc3F)c2)(c2ccc3c(c2)OC(F)(F)O3)C2=NCCCN12` (configuration not stated), the melting point is 95 to 99 °C.

`Cc1c(O)ccc(C(=O)c2cccs2)c1C` registered a melting point of 144 °C.

For the molecule `CCOC(=O)C(=O)Nc1ccc(N(C)C)cc1O`, the melting point was in the range of 259 to 260 °C.

In the case of `CC(=O)NCC1CN(c2ccc(S(=O)(=O)CCO)c(F)c2)C(=O)O1` (configuration not stated), the melting point fell in the range of 162 to 163 °C.

In turn, `O=C(NCCCC1CC1)c1ccc(N2CCC(N3C(=O)C(F)(F)c4ccccc43)CC2)nn1` registered a melting point of 51 to 53 °C.

Regarding `COc1ccccc1NC(=O)Nc1nc(Nc2ccc(CC(=O)O)cc2)nc(Oc2ccc3ccccc3c2)n1`, the melting point lay in the range of 232 to 240 °C.

In turn, `O=c1cc2c(n[nH]1)-c1ccccc1C2` registered a melting point of 295 °C.

Regarding `CC(C)N1C(=O)N=C(SCc2ccccc2)NS1(=O)=O`, the melting point lay in the range of 124 to 130 °C.

Take `COc1cc2c(cc1OC)CC(=O)N(CCCN(C)C1CCc3cc(Cl)c(Cl)cc3C1)CC2` (configuration not stated): the melting point was found to be 130 °C.

The molecule `CCOC(=O)CCCOc1ccc(C(=O)Nc2ccccc2S(=O)(=O)c2ccccc2-c2nnn[nH]2)cc1` returned a melting point of 182 to 184 °C.

Regarding `COc1cc2nc(SCc3nccc(N(C)C)c3Cl)[nH]c2cc1OC`, the melting point is 121 to 122 °C.

As to `CSc1ccc(-c2c(C)n[nH]c(=O)c2-c2ncc(Cl)cc2Cl)nc1`, the melting point is 229 °C.
